Laboratory results as given in patent publication US20240400555A1 (Initial Therapeutics, Inc., priority 2023, published 2024).

system: HCT-116 Firefly-luciferase reporter cells; test: Cellular c-MYC Reporter Assay; assay type: cell-based; conditions: Homo sapiens; untitled table following Table 8a; HCT-116 Firefly-luciferase reporter cells, 24 h; read-out: pIC50 (converted)
Experimental: HCT-116 Firefly-luciferase reporter cells (BPS Bioscience) were seeded in 96-well tissue-culture treated sterile plates (Greiner Bio-One) at 5e4 cells/mL in 100 μL complete growth media (McCoy's 5A+10% FBS, +1% Pen-Strep, +1% G418). Cells were incubated at 37° C. with 5% CO2 for 4-6 h then treated with 3× compound solution in 50 μL complete growth media for a final volume of 150 μL per well with 0.2% DMSO. After 24 h incubation at 37° C. with 5% CO2, plates were allowed to equilibrate to RT for 20 min then developed by addition of 100 μL ONE-Glo Luciferase detection reagent (Promega), incubated at RT for 10 min. Luminescence was recorded using a SpectraMax i3x plate reader (Molecular Devices) and analyzed using Prism GraphPad 9 software.

Row | IC50 [nM] | Compound
1 | 79.4 | Cc1cccc2ccnc(N(C(=O)c3ccc(-c4cn(C)nn4)cc3F)[C@@H]3CCCNC3)c12 [Example 193, (R)-2-fluoro-4-(1-methyl-1H-1,2,3-triazol-4-yl)-N-(8-methylisoquinolin-1-yl)-N-(piperidin-3-yl)benzamide]
2 | 6310 | Cc1cccc2ccnc(N(C(=O)c3ccc(N4CCOCC4)cc3)[C@@H]3CCCNC3)c12 [Example 219, (R)—N-(8-methylisoquinolin-1-yl)-4-morpholino-N-(piperidin-3-yl)benzamide]
3 | 417 | O=C(c1ccc(-n2nnc3cccnc32)cc1F)N(c1nccc2sc(-c3ccncc3)cc12)[C@@H]1CCCNC1 [Example 161, (R)-4-(3H-[1,2,3]triazolo[4,5-b]pyridin-3-yl)-2-fluoro-N-(piperidin-3-yl)-N-(2-(pyridin-4-yl)thieno[3,2-c]pyridin-4-yl)benzamide]
4 | > 20000 | Cc1cccc2ccnc(N(C(=O)c3ccc(Nc4cccc(=O)[nH]4)cc3F)[C@@H]3CCCNC3)c12 [Example 292, (R)-2-fluoro-N-(8-methylisoquinolin-1-yl)-4-((6-oxo-1,6-dihydropyridin-2-yl)amino)-N-(piperidin-3-yl)benzamide]
5 | 5500 | Cc1cccc2ccnc(N(C(=O)N3CC=C(c4ccccc4OCc4ccccc4)CC3)[C@@H]3CCCNC3)c12 [Example 299, (R)-4-(2-(benzyloxy)phenyl)-N-(8-methylisoquinolin-1-yl)-N-(piperidin-3-yl)-3,6-dihydropyridine-1(2H)-carboxamide]
6 | 6030 | Cc1cccc2ccnc(N(C(=O)c3ccc(N4CC(C)NC4=O)cc3F)[C@@H]3CCCNC3)c12 (stereo partly drawn) [Example 172, 2-fluoro-4-(4-methyl-2-oxoimidazolidin-1-yl)-N-(8-methylisoquinolin-1-yl)-N—((R)-piperidin-3-yl)benzamide]
7 | 200 | Cc1cnc(Nc2ccc(C(=O)N(c3nccc4cccc(C)c34)[C@@H]3CCCNC3)c(F)c2)nc1 [Example 186, (R)-2-fluoro-N-(8-methylisoquinolin-1-yl)-4-((5-methylpyrimidin-2-yl)amino)-N-(piperidin-3-yl)benzamide]
8 | 275 | Cc1cccc2ccnc(N(C(=O)c3ccc(Nc4ncccn4)cc3F)[C@@H]3CCCNC3)c12 [Example 210, (R)-2-fluoro-N-(8-methylisoquinolin-1-yl)-N-(piperidin-3-yl)-4-(pyrimidin-2-ylamino)benzamide]
9 | 437 | CCc1ccc2nnn(-c3ccc(C(=O)N(c4nccc5cccc(C)c45)[C@@H]4CCCNC4)c(F)c3)c2n1 [Example 216, (R)-4-(5-ethyl-3H-[1,2,3]triazolo[4,5-b]pyridin-3-yl)-2-fluoro-N-(8-methylisoquinolin-1-yl)-N-(piperidin-3-yl)benzamide]
10 | 43.7 | Cc1cccc2ccnc(N(C(=O)c3c(F)cc(-n4nnc5cccnc54)cc3F)[C@@H]3CCCNC3)c12 [Example 218, (R)-4-(3H-[1,2,3]triazolo[4,5-b]pyridin-3-yl)-2,6-difluoro-N-(8-methylisoquinolin-1-yl)-N-(piperidin-3-yl)benzamide]
11 | 575 | O=C(c1ccc(-n2nnc3cccnc32)cc1F)N(c1nccc2ccc(/C=C/CO)cc12)[C@@H]1CCCNC1 [Example 135, (R)-4-(3H-[1,2,3]triazolo[4,5-b]pyridin-3-yl)-2-fluoro-N-(7-(3-hydroxyprop-1-en-1-yl)isoquinolin-1-yl)-N-(piperidin-3-yl)benzamide]
12 | 1410 | O=C(c1ccc(-n2nnc3cccnc32)cc1F)N(c1nccc2ncccc12)[C@@H]1CCCNC1 [Example 249, (R)-4-(3H-[1,2,3]triazolo[4,5-b]pyridin-3-yl)-2-fluoro-N-(1,6-naphthyridin-5-yl)-N-(piperidin-3-yl)benzamide]
13 | 11000 | Cc1cc(C2CCN(C(=O)N(c3nccc4cccc(C)c34)[C@@H]3CCCCNC3)CC2)on1 [Example 181, (R)—N-(azepan-3-yl)-N-(8-methylisoquinolin-1-yl)-4-(3-methylisoxazol-5-yl)piperidine-1-carboxamide]
14 | 288 | Cc1cccc2ccnc(N(C(=O)c3ccc(-n4nnc5ccc(-c6ccccc6)nc54)cc3F)[C@@H]3CCCNC3)c12 [Example 171, (R)-2-fluoro-N-(8-methylisoquinolin-1-yl)-4-(5-phenyl-3H-[1,2,3]triazolo[4,5-b]pyridin-3-yl)-N-(piperidin-3-yl)benzamideamide]
15 | 170 | Cc1cccc2ccnc(N(C(=O)c3ccc(-n4nnc5ccc(C(F)(F)F)nc54)cc3F)[C@@H]3CCCNC3)c12 [Example 205, (R)-2-fluoro-N-(8-methylisoquinolin-1-yl)-N-(piperidin-3-yl)-4-(5-(trifluoromethyl)-3H-[1,2,3]triazolo[4,5-b]pyridin-3-yl)benzamide]
16 | 148 | Cc1cccc2ccnc(N(C(=O)c3ncc(-n4nnc5cccnc54)cc3F)[C@@H]3CCCNC3)c12 [Example 201, (R)-5-(3H-[1,2,3]triazolo[4,5-b]pyridin-3-yl)-3-fluoro-N-(8-methylisoquinolin-1-yl)-N-(piperidin-3-yl)picolinamide]
17 | > 20000 | Cc1cccc2ccnc(N(C(=O)c3ccc(-n4nnc5ccc(C(=O)O)nc54)cc3F)[C@@H]3CCCNC3)c12 [Example 293, (R)-3-(3-fluoro-4-((8-methylisoquinolin-1-yl)(piperidin-3-yl)carbamoyl)phenyl)-3H-[1,2,3]triazolo[4,5-b]pyridine-5-carboxylic acid]
18 | 4900 | Cc1cccc2ccnc(N(C(=O)c3ccc(Nc4ccn(C)n4)cc3F)[C@@H]3CCCNC3)c12 [Example 277, (R)-2-fluoro-4-((1-methyl-1H-pyrazol-3-yl)amino)-N-(8-methylisoquinolin-1-yl)-N-(piperidin-3-yl)benzamide]
19 | 1120 | O=C(c1ccc(-n2nnc3cccnc32)cc1F)N(c1ncccc1-c1cnoc1)[C@@H]1CCCNC1 [Example 114, (R)-4-(3H-[1,2,3]triazolo[4,5-b]pyridin-3-yl)-2-fluoro-N-(3-(isoxazol-4-yl)pyridin-2-yl)-N-(piperidin-3-yl)benzamide]
20 | 316 | Cc1cccc2ccnc(N(C(=O)c3ccc(Nc4nc5ccccn5n4)cc3F)[C@@H]3CCCNC3)c12 [Example 169, (R)-4-([1,2,4]triazolo[1,5-a]pyridin-2-ylamino)-2-fluoro-N-(8-methylisoquinolin-1-yl)-N-(piperidin-3-yl)benzamide]
21 | 380 | Cn1cnc(-c2cccnc2N(C(=O)c2ccc(-n3nnc4cccnc43)cc2F)[C@@H]2CCCNC2)c1 [Example 112, (R)-4-(3H-[1,2,3]triazolo[4,5-b]pyridin-3-yl)-2-fluoro-N-(3-(1-methyl-1H-imidazol-4-yl)pyridin-2-yl)-N-(piperidin-3-yl)benzamide]
22 | 1170 | CCOC(=O)/C=C/c1cccc2ccnc(N(C(=O)c3ccc(-c4cn(C)nn4)cc3)[C@@H]3CCCNC3)c12 [Example 100, ethyl (R,E)-3-(1-(4-(1-methyl-1H-1,2,3-triazol-4-yl)-N-(piperidin-3-yl)benzamido)isoquinolin-8-yl)acrylate]
23 | 155 | Cc1cccc2ccnc(N(C(=O)c3ccc(-n4nnc5cccnc54)nc3)[C@@H]3CCCNC3)c12 [Example 245, (R)-6-(3H-[1,2,3]triazolo[4,5-b]pyridin-3-yl)-N-(8-methylisoquinolin-1-yl)-N-(piperidin-3-yl)nicotinamide]
